Results from ChEMBL document CHEMBL1201862, “PubChem BioAssay data set” (2004).
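Protocol summary: plate cells (96-well), add compound at 5 concentrations, incubate 48 h, interpolate endpoints linearly. GI50 marks 50% less growth.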 Calls of active or inactive are those of the source. Rule as the data show it: active = GI50 up to about 1.1 µM and inactive = higher.

What was measured:
Assay in all cases: DTP human tumour cell line panel, 48 h
[1] = tested on: DU-145
[2] = tested on: EKVX
[3] = tested on: HCC 2998
[4] = tested on: HCT-116
[5] = tested on: HCT-15
[6] = tested on: HOP-62
[7] = tested on: KM12
[8] = tested on: MOLT-4
[9] = tested on: NCI-H23
[10] = tested on: NCI-H460
[11] = tested on: OVCAR-5
[12] = tested on: RXF 393
[13] = tested on: SF-268
[14] = tested on: SF-295
[15] = tested on: SK-OV-3
[16] = tested on: SN12C
[17] = tested on: SNB-75
[18] = tested on: SW-620
[19] = tested on: TK-10
[20] = tested on: UACC-257

Measured: GI50

Cc1c2c(nc3ccccc13)C(=O)c1cccnc1C2=O
inactive: [1] 21.6 µM | [2] 20 µM | [3] 7.62 µM | [4] 3.91 µM | [6] 20.6 µM | [7] 14.9 µM | [8] 9.71 µM | [9] 6.46 µM | [10] 1.96 µM | [11] 60.4 µM | [12] 63.5 µM | [13] 25.2 µM | [14] 12.4 µM | [15] > 100 µM | [16] 5.79 µM | [17] 11.1 µM | [18] 12.1 µM | [19] > 100 µM | [20] 6.97 µM
10.9 µM: [5]

O=C(CC(C(=O)c1ccco1)c1ccsc1)c1ccco1 (stereo not given)
> 100 µM: [5]
inactive: [1] > 100 µM | [2] > 100 µM | [3] > 100 µM | [4] > 100 µM | [6] > 100 µM | [7] > 100 µM | [8] 37.4 µM | [9] > 100 µM | [10] 71.1 µM | [11] > 100 µM | [12] 48.9 µM | [13] > 100 µM | [14] > 100 µM | [15] > 100 µM | [16] > 100 µM | [17] 47 µM | [18] > 100 µM | [19] > 100 µM | [20] > 100 µM

CCC1C(=O)OCc2c1cc1n(c2=O)Cc2cc3ccccc3nc2-1 (stereo not given)
inactive: [1] 2.98 µM | [2] 77.6 µM | [3] 25.9 µM | [4] 8.41 µM | [6] 2.08 µM | [7] 50.9 µM | [9] 2.84 µM | [11] 33.4 µM | [12] 23.8 µM | [13] 3.67 µM | [14] 2.38 µM | [15] 43.6 µM | [16] 5.07 µM | [17] 1.96 µM | [18] 7.16 µM | [19] > 100 µM | [20] 50.7 µM
43.4 µM: [5]
active: [8] 0.733 µM | [10] 0.802 µM

COC(=O)NCCc1n[nH]c2c1C(=O)C=C(N1CCOCC1)C2=O
> 100 µM: [5]
inactive: [1] > 100 µM | [2] > 100 µM | [3] > 100 µM | [4] > 100 µM | [6] > 100 µM | [7] > 100 µM | [8] > 100 µM | [9] > 100 µM | [10] > 100 µM | [11] > 100 µM | [12] > 100 µM | [13] > 100 µM | [14] > 100 µM | [15] > 100 µM | [16] > 100 µM | [17] > 100 µM | [18] > 100 µM | [19] > 100 µM | [20] > 100 µM

N#Cc1c(O)cc(=O)n2c1[nH]c1ccccc12
inactive: [1] > 100 µM | [2] > 100 µM | [3] > 100 µM | [4] > 100 µM | [6] > 100 µM | [7] > 100 µM | [8] > 100 µM | [9] > 100 µM | [10] > 100 µM | [11] > 100 µM | [12] > 100 µM | [13] > 100 µM | [14] 64 µM | [15] > 100 µM | [16] > 100 µM | [17] > 100 µM | [18] > 100 µM | [19] > 100 µM | [20] > 100 µM
> 100 µM: [5]

Cc1ccc2c(ccc(/C=C/c3ccc(O)c4ncccc34)[n+]2C)c1
16.1 µM: [5]
inactive: [1] > 32.1 µM | [2] 18.1 µM | [3] 3.56 µM | [4] 3.87 µM | [6] 6.85 µM | [7] 9.08 µM | [8] 1.75 µM | [9] 11 µM | [10] 2.87 µM | [11] 25.2 µM | [12] 16.3 µM | [13] 2.94 µM | [14] 13.8 µM | [15] 15.4 µM | [16] 12.1 µM | [17] 19.5 µM | [18] 4.65 µM | [19] 15.6 µM | [20] 8.04 µM

O=c1[nH]c(=O)n(COCCOCc2ccccc2)cc1Nc1ccccc1
> 100 µM: [5]
inactive: [1] > 100 µM | [2] > 100 µM | [3] > 100 µM | [4] > 100 µM | [6] > 100 µM | [7] > 100 µM | [8] 59.4 µM | [9] > 100 µM | [10] > 100 µM | [11] > 100 µM | [12] > 100 µM | [13] > 100 µM | [14] > 100 µM | [15] > 100 µM | [16] > 100 µM | [17] > 100 µM | [18] > 100 µM | [19] > 100 µM | [20] > 100 µM

CC(C)=CCC12Cc3ccc(O)cc3C(C(C)CN1)C2C (stereo not given)
72.1 µM: [5]
inactive: [1] > 100 µM | [2] > 100 µM | [3] 20.8 µM | [4] 59.7 µM | [6] > 100 µM | [7] > 100 µM | [8] 52 µM | [9] > 100 µM | [10] 52.5 µM | [11] 58.9 µM | [12] > 100 µM | [13] > 100 µM | [14] 65.2 µM | [15] > 100 µM | [16] > 100 µM | [17] 99.5 µM | [18] > 100 µM | [19] > 100 µM | [20] 27.3 µM

O=C1CCCCC1C(O)(C(F)(F)F)C(F)(F)Cl (stereo not given)
> 10 µM: [5]
inactive: [1] > 10 µM | [2] > 10 µM | [3] > 10 µM | [4] > 10 µM | [6] > 10 µM | [7] > 10 µM | [8] > 10 µM | [9] > 10 µM | [10] > 10 µM | [11] > 10 µM | [12] > 10 µM | [13] > 10 µM | [14] > 10 µM | [15] > 10 µM | [16] > 10 µM | [17] > 10 µM | [18] > 10 µM | [19] > 10 µM | [20] > 10 µM

CC(C)(C)OC(=O)N(CCCCNC(=O)OCc1ccccc1)CCCNC(=O)OCc1ccccc1
> 100 µM: [5]
inactive: [1] > 100 µM | [2] 50.4 µM | [3] 98.6 µM | [4] 41.8 µM | [6] > 100 µM | [7] 35.5 µM | [8] 3.27 µM | [9] 21.6 µM | [10] 38.2 µM | [11] > 100 µM | [12] 30 µM | [13] > 100 µM | [14] 25.9 µM | [15] > 100 µM | [16] 53.3 µM | [17] 51.9 µM | [18] 71 µM | [19] > 100 µM | [20] 26.4 µM

CC(=O)OC12OC(C)(C3C(=O)N(c4ccccc4)C(=O)C31)N(c1ccccc1)C2=O (stereo not given)
> 100 µM: [5]
inactive: [1] > 100 µM | [2] 84.7 µM | [3] 51.6 µM | [4] > 100 µM | [6] > 100 µM | [7] > 100 µM | [8] > 100 µM | [9] > 100 µM | [10] > 100 µM | [11] > 100 µM | [12] > 100 µM | [13] > 100 µM | [14] > 100 µM | [15] > 100 µM | [16] > 100 µM | [17] > 100 µM | [18] > 100 µM | [19] > 100 µM | [20] 16.7 µM

COC(=O)C1CC23C4=C(CCC41)CCC1CN4CC(C)C(CC(OC(C)=O)C12COC(C)=O)C43O (stereo not given)
inactive: [1] > 100 µM | [2] > 100 µM | [3] > 100 µM | [4] > 100 µM | [6] > 100 µM | [7] > 100 µM | [8] 68.4 µM | [9] > 100 µM | [10] > 100 µM | [11] > 100 µM | [12] > 100 µM | [13] > 100 µM | [14] > 100 µM | [15] > 100 µM | [16] > 100 µM | [17] > 100 µM | [18] > 100 µM | [19] > 100 µM | [20] > 100 µM
> 100 µM: [5]

Cc1ccc2nc3c(C)c(Cl)c(=O)cc-3sc2c1
10.6 µM: [5]
inactive: [1] 44 µM | [2] 38.8 µM | [3] 40.3 µM | [4] 17.8 µM | [6] 27.5 µM | [7] 23.1 µM | [8] 4.98 µM | [9] 13.2 µM | [10] 23.1 µM | [11] 34.3 µM | [12] 22.9 µM | [13] 26.8 µM | [14] 23.3 µM | [15] > 100 µM | [16] 26.6 µM | [17] 14.5 µM | [18] 28.6 µM | [19] 56.8 µM | [20] 16.6 µM

CCOC(=O)/C=C/[C@H](O)[C@@H](O)/C=C/C(=O)OCC
23 µM: [5]
inactive: [1] 37.4 µM | [2] 24.7 µM | [3] 36.1 µM | [4] 18.2 µM | [6] 21.3 µM | [7] 18.9 µM | [8] 14.9 µM | [9] 33.8 µM | [10] 19.1 µM | [11] 51.2 µM | [12] 20.2 µM | [13] 34.2 µM | [14] 31.7 µM | [15] 62.2 µM | [16] 26.6 µM | [17] 62.7 µM | [18] 17 µM | [19] 55.8 µM | [20] 45.8 µM
